Source: paper PMC11302339, “A series of pyrimidine-based antifungals with anti-mold activity disrupt ER function in Aspergillus fumigatus” (Microbiology Spectrum, 2024)
In brackets after ≈: the same amount, converted by molar mass. Read-outs that look alike come from different tables or passages of the source. Marks after values point to notes of the source that are not given here.

Legend:
[1] = system: A. niger; assay: MIC testing (CLSI broth dilution); type: cell-based, Aspergillus niger; conditions: strain S007, clinical isolate; no clear well, growth reduced by ≥50% at MEC
Method: (§1) MICs were determined using Clinical and Laboratory Standards Institute guidelines ([48], [49]). All yeasts were cultured overnight in 3 mL YPD at 30°C, then washed twice in sterile phosphate-buffered saline (PBS). Twofold serial dilutions of each drug were prepared in RMPI + MOPS, then 1 × 10^3 cells were added per well. For mold species, wells were inoculated with 1.25 × 10^3 conidia per well. Plates were incubated at 37°C for 24 (Candida spp. and S. cerevisiae), 48 (Aspergillus spp., M. circinelloides, S. apiospermum, and L. prolificans), or 72 (C. neoformans and F. oxysporum) hours. S. cerevisiae BY4743 MICs were tested in YPD due to nutritional requirements of this strain. Each assay was performed in technical duplicate in at least two independent experiments performed on different days.

[2] = system: C. albicans; assay: MIC testing (CLSI broth dilution); type: cell-based, Candida albicans
Method: as §1

[3] = system: C. neoformans; assay: C. neoformans time kill assay; type: cell-based, Cryptococcus neoformans
Method: Overnight cultures of H99 were enumerated and diluted 1 × 10^5 CFU/mL in YPD with 4 µg/mL 1, 8 µg/mL 1, or DMSO. Cultures were incubated at 37°C with shaking for 30 hours with sampling at t = 0, 2, 4, 6, 8, 24, and 30 hours, then 10-fold serial dilutions of each sample were prepared and spotted on YPD. Viable colonies were enumerated after 48 hours at 30°C. Data are representative of two independent experiments performed in biological triplicate with technical duplicates.

[4] = system: C. neoformans H99; assay: Generation of resistant isolates (high-density plating, serial passaging); type: cell-based, Cryptococcus neoformans
Method: Finally, we attempted to generate resistant isolates to understand the rate of resistance and potentially uncover mechanism of action. First, to determine spontaneous rates, we performed high-density plating (~2 × 10^9 cells) of C. neoformans on YPD plates containing 64 µg/mL 1 ([24]). […] Next, we employed serial passaging of both C. neoformans H99 and Saccharomyces cerevisiae BY4741 to evaluate evolved resistance upon exposure to sub-MIC concentrations. Yeast cells were grown in a 96-well format in the presence of 1/4 MIC 1, then cultures were passaged to fresh media containing a twofold increase in drug concentration. At each passage, the inoculum was diluted ~1:100 to allow ~10 generations of growth for a total of at least 50 generations over the course of the experiment.

[5] = system: C. neoformans H99; assay: ER stress interactions on YPD plates; type: cell-based, Cryptococcus neoformans; conditions: 4 µg/mL 1 on YPD
Method: (§2) To determine interactions of 1 with ER stress in Cryptococcus neoformans, an overnight culture of H99 was diluted to 1 × 10^6 CFU/mL, then three 10-fold dilutions were prepared. Three-microliter spots of each cell dilution were plated in triplicate on YPD containing DMSO or 4 µg/mL 1 in combination with DTT, brefeldin A, or tunicamycin. Plates were incubated at 37°C for 72 hours. Images are representative of two independent experiments performed in biological triplicate.

[6] = system: C. neoformans ∆ire1; assay: Susceptibility of ∆ire1 mutant on YPD plates; type: cell-based, Cryptococcus neoformans; conditions: YPD with 4 or 16 µg/mL 1, 30 °C, 72 hours
Method: as §2
Supplemental Figure 3. 1 interacts with ER stress in C. neoformans but activity is not dependent on Ire1. A) Serial dilutions of C. neoformans H99 on YPD with DMSO or 4 µg/mL 1 combined with ER stresses Brefeldin A (BfA), DTT, or Tunicamycin (Tun). Plates were incubated at 37 °C for 72 hours. Representative images of two independent experiments with three biological replicates each. B) Serial dilutions of C. neoformans H99 wild type and ∆ire1 mutant on YPD containing 4 µg/mL 1, 16 µg/mL 1 or DMSO incubated at 30 °C for 72 hours.
Representative images of two independent experiments with three biological replicates each.
(1 picture or pasted object on this page, not shown here)

[7] = system: A549 cells; assay: Cytotoxicity by LDH release; type: cell-based, human; conditions: A549, 24 hours
Method: (§3) HepG2 [American Type Culture Collection (ATCC), HB-8065], HeLa (ATCC, CCL-2), and A549 (ATCC, CCL-185) cells were maintained and cultured in Dulbecco’s modified Eagle medium (Gibco, Cat # 11965–092) with 10% FBS and 1% penicillin/streptomycin at 37°C with 5% CO2. Cells were seeded in 96-well plates at a density of 1.25 × 10^4 cells/well and incubated overnight at 37°C with 5% CO2; then, media were removed and replaced with media containing a twofold drug dilution series with equal DMSO across all wells. Cells were incubated for an additional 24 hours, then the supernatant was removed and used to quantify lactate dehydrogenase release using the CyQuant LDH assay kit (Invitrogen, Cat # C20300) following the manufacturers’ directions. LDH was normalized to a maximum lysis control treated with Triton-X. HeLa and A549 cells were purchased in 2023, and the cells used for these studies were directly from fresh vials. HepG2 cells for these studies were used from a fresh, low passage (P3) vial saved directly from purchased stocks.

[8] = system: HeLa cells; assay: Cytotoxicity by LDH release; type: cell-based, human; conditions: 24 hours
Method: as §3

[9] = system: HepG2 cells; assay: Cytotoxicity by LDH release; type: cell-based, human; conditions: HepG2, 24 hours
Method: as §3

[10] = system: C. neoformans; assay: MIC testing in the presence of 10% serum; type: cell-based
Method: as §1

[11] = Mouse microsome stability; type: in vitro ADME; conditions: mouse microsomes, 0.5 mg/mL microsomes, NADPH cofactors, 37°C
Method: 1 (2 mM in DMSO) was incubated at 37°C with 0.5 mg/mL mouse microsomes (lot # 2110330) fraction and Phase I (NADPH regenerating system) cofactors for 0–120 min at a final concentration of 2 µM. Reactions were quenched with 0.5 mL (1:1) of methanol containing formic acid (FA) 0.2% and 100 ng/mL n-benzylbenzamide internal standard (IS; 0.1% FA and 50ng/mL IS final). Samples were vortexed for 30 s, incubated at room temperature for 10 min, and spun for 5 min at 2,200 rpm in a tabletop centrifuge. Supernatant (~0.9 mL) was then transferred to an Eppendorf tube and spun in a 4°C microfuge for 5 min at 13,200 rpm. Supernatant was transferred to an high-performance liquid chromatography plate with seal and samples then analyzed by a 4500 LC-MS/MS.

SMILES: OC1CC(c2cc(N3CCC(CCc4ccccc4)CC3)ncn2)C1 (centres unmarked) [compound 1]
- Minimum effective concentration (MEC) [1]: 16^b µg/mL
- MIC ([2]; Candida albicans, strain SC5314, CLSI conditions, 24 h, read-out: MIC): 64 µg/mL (≈ 190 µM)
- MIC ([2]; Candida albicans, strain not named, read-out: MIC): 64 µg/mL (≈ 190 µM)
- MIC ([2]; strain TWO7241, azole-resistant clinical isolate, CLSI conditions): 64 µg/mL (≈ 190 µM)
- MIC ([2]; strain TWO7243, azole-resistant clinical isolate, CLSI conditions): 64 µg/mL (≈ 190 µM)
- propidium iodide staining of C. neoformans vs vehicle ([3]; 8 µg/mL, 24 hours post treatment (Fig. S1)): did not observe changes in propidium iodide
- type of activity (time kill) ([3]; 2× (4 µg/mL) or 4× (8 µg/mL) MIC over 30 hours): fungistatic
- viable CFUs vs vehicle-treated controls ([3]; 4 or 8 µg/mL, 8, 24 and 30 hours post-treatment): significantly reduced
- evolved resistance, serial passaging ([4]; from 1/4 MIC, twofold increases, at least 50 generations): did not recover stable resistance
- spontaneous resistance, high-density plating ([4]; ~2 × 10^9 cells on YPD with 64 µg/mL 1): unable to isolate resistant colonies
- interaction with tunicamycin ([5]; 0.125 µg/mL tunicamycin): antagonistic
- interaction with tunicamycin ([5]; 0.25 µg/mL tunicamycin): additive
- interaction with DTT ([5]; 37°C, 72 hours): synergistic
- interaction with brefeldin A ([5]; 37°C, 72 hours): synergistic
- susceptibility of ∆ire1 mutant vs wild type [6]: did not show increased susceptibility
- LD50 (LDH release) [7]: 198 µg/mL
- LD50 (LDH release) [8]: 146 µg/mL
- LD50 (LDH release) [9]: 111 µg/mL
- increase in MIC in the presence of 10% serum [10]: 2 fold
- half-life at 2 µM [11]: 1.25 h
